Results published in patent US20240067621A1, “POLYFLUORINATED CANNABINOID AND CANNABINOID-LIKE COMPOUNDS AND METHODS OF SYNTHESIS AND USE THEREOF” (The Board of Regents For The Oklahoma Agricultural And …, priority 2021, published 2024).

tested on: not given; settings: not given

Row | SMILES | melting point [°C]
1 | CC1=CC(c2c(F)c(F)c(C#N)c(F)c2F)C(C#N)=CC1 (centres unmarked) | 117 to 120
2 | COC(=O)C1=CCC(OC(=O)OC(C)(C)C)=CC1c1c(F)c(F)c(C#N)c(F)c1F (centres unmarked) | 104 to 105
3 | COC(=O)C1=CCC(C)=CC1c1c(F)c(F)c(C(=O)OC)c(F)c1F (centres unmarked) | 91 to 95
4 | COC(=O)C1=CCC(C)=CC1c1c(F)c(F)nc(F)c1F (centres unmarked) | 93 to 96
5 | COC(=O)C1=CCC(C(C)(C)C)=CC1c1c(F)c(F)nc(F)c1F (centres unmarked) | 59 to 60
6 | COC(=O)C1=CCC(C)=CC1c1c(F)c(F)c(C(F)(F)F)c(F)c1F (centres unmarked) | 104 to 105
7 | COC(=O)C1=CCC(C(C)(C)C)=CC1c1c(F)c(F)c(C#N)c(F)c1F (centres unmarked) | 108 to 110

tested on: cannabinoid receptors; settings: natural (trans) THC versus its cis counterpart; cited from earlier work

Row | SMILES | affinity for cannabinoid receptors
8 | CCCCCc1cc(O)c2c(c1)OC(C)(C)[C@@H]1CCC(C)=C[C@@H]21 [THC, trans-Δ^9 -tetrahydrocannabinol] | higher affinity
